Experiments:
Assay in all cases: Test C pre/postemergence
Format in all cases: in vivo
Details in all cases: Preemergence
[1] = tested on: bermudagrass (Cynodon dactylon)
Summary of the method: (§1)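 We sprayed seeded pots preemergence and 2–18 cm seedlings postemergence with test chemicals in a non-phytotoxic solvent mixture including surfactant. Greenhouse plants were visually compared with untreated controls at 12 to 14 days and scored 0 (no effect) to 100 (complete control).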

[2] = tested on: common ragweed (Ambrosia elatior)
Summary of the method: as §1

[3] = tested on: goosegrass (Eleusine indica)
Summary of the method: as §1

[4] = tested on: pigweed (Amaranthus retroflexus)
Summary of the method: as §1

[5] = tested on: velvetleaf (Abutilon theophrasti)
Summary of the method: as §1

[6] = tested on: woolly cupgrass (Eriochloa villosa)
Summary of the method: as §1

[7] = tested on: yellow nutsedge (Cyperus esculentus)
Summary of the method: as §1

[8] = 62 g ai/ha, scale 0 to 100, 0 no effect, 100 complete control
[9] = 31 g ai/ha, scale 0 to 100, 0 no effect, 100 complete control

Nc1nc(C2CC2)nc(C=O)c1Br [Compound 26]
pest or weed control at 62 g/ha ([1]; Cynodon dactylon, pre-emergence, 62 g ai/ha, scale 0 to 100, 0 no effect, 100 complete control, read-out: Plant response rating, Bermudagrass): 0%
pest or weed control at 125 g/ha ([1]; Cynodon dactylon, pre-emergence, 125 g ai/ha, scale 0 to 100, read-out: Plant response rating, Bermudagrass): 0%
pest or weed control at 250 g/ha ([1]; Cynodon dactylon, pre-emergence, 250 g ai/ha, scale 0 to 100, read-out: Plant response rating, Bermudagrass): 0%
pest or weed control at 500 g/ha ([1]; Cynodon dactylon, pre-emergence, 500 g ai/ha, scale 0 to 100, read-out: Plant response rating, Bermudagrass): 0%
pest or weed control at 62 g/ha ([2]; Ambrosia artemisiifolia, pre-emergence, 62 g ai/ha, scale 0 to 100, 0 no effect, 100 complete control, read-out: Plant response rating, Ragweed): 0%
pest or weed control at 125 g/ha ([2]; Ambrosia artemisiifolia, pre-emergence, 125 g ai/ha, scale 0 to 100, read-out: Plant response rating, Ragweed): 10%
pest or weed control at 250 g/ha ([2]; Ambrosia artemisiifolia, pre-emergence, 250 g ai/ha, scale 0 to 100, read-out: Plant response rating, Ragweed): 85%
pest or weed control at 500 g/ha ([2]; Ambrosia artemisiifolia, pre-emergence, 500 g ai/ha, scale 0 to 100, read-out: Plant response rating, Ragweed): 90%
pest or weed control at 62 g/ha ([3]; Eleusine indica, pre-emergence, 62 g ai/ha, scale 0 to 100, 0 no effect, 100 complete control, read-out: Plant response rating, Goosegrass): 0%
pest or weed control at 125 g/ha ([3]; Eleusine indica, pre-emergence, 125 g ai/ha, scale 0 to 100, read-out: Plant response rating, Goosegrass): 0%
pest or weed control at 250 g/ha ([3]; Eleusine indica, pre-emergence, 250 g ai/ha, scale 0 to 100, read-out: Plant response rating, Goosegrass): 0%
pest or weed control at 500 g/ha ([3]; Eleusine indica, pre-emergence, 500 g ai/ha, scale 0 to 100, read-out: Plant response rating, Goosegrass): 0%
pest or weed control at 62 g/ha ([4]; Amaranthus retroflexus, pre-emergence, 62 g ai/ha, scale 0 to 100, 0 no effect, 100 complete control, read-out: Plant response rating, Pigweed): 30%
pest or weed control at 125 g/ha ([4]; Amaranthus retroflexus, pre-emergence, 125 g ai/ha, scale 0 to 100, read-out: Plant response rating, Pigweed): 100%
pest or weed control at 250 g/ha ([4]; Amaranthus retroflexus, pre-emergence, 250 g ai/ha, scale 0 to 100, read-out: Plant response rating, Pigweed): 100%
pest or weed control at 500 g/ha ([4]; Amaranthus retroflexus, pre-emergence, 500 g ai/ha, scale 0 to 100, read-out: Plant response rating, Pigweed): 100%
pest or weed control at 62 g/ha ([5]; Abutilon theophrasti, pre-emergence, 62 g ai/ha, scale 0 to 100, 0 no effect, 100 complete control, read-out: Plant response rating, Velvetleaf): 0%
pest or weed control at 125 g/ha ([5]; Abutilon theophrasti, pre-emergence, 125 g ai/ha, scale 0 to 100, read-out: Plant response rating, Velvetleaf): 10%
pest or weed control at 250 g/ha ([5]; Abutilon theophrasti, pre-emergence, 250 g ai/ha, scale 0 to 100, read-out: Plant response rating, Velvetleaf): 90%
pest or weed control at 500 g/ha ([5]; Abutilon theophrasti, pre-emergence, 500 g ai/ha, scale 0 to 100, read-out: Plant response rating, Velvetleaf): 90%
pest or weed control at 62 g/ha ([6]; Eriochloa villosa, pre-emergence, 62 g ai/ha, scale 0 to 100, 0 no effect, 100 complete control, read-out: Plant response rating, Cupgrass, Woolly): 0%
pest or weed control at 125 g/ha ([6]; Eriochloa villosa, pre-emergence, 125 g ai/ha, scale 0 to 100, read-out: Plant response rating, Cupgrass, Woolly): 0%
pest or weed control at 250 g/ha ([6]; Eriochloa villosa, pre-emergence, 250 g ai/ha, scale 0 to 100, read-out: Plant response rating, Cupgrass, Woolly): 0%
pest or weed control at 500 g/ha ([6]; Eriochloa villosa, pre-emergence, 500 g ai/ha, scale 0 to 100, read-out: Plant response rating, Cupgrass, Woolly): 0%
pest or weed control at 62 g/ha ([7]; Cyperus, pre-emergence, 62 g ai/ha, scale 0 to 100, 0 no effect, 100 complete control, read-out: Plant response rating, Nutsedge, Yellow): 0%
pest or weed control at 125 g/ha ([7]; Cyperus, pre-emergence, 125 g ai/ha, scale 0 to 100, read-out: Plant response rating, Nutsedge, Yellow): 0%
pest or weed control at 250 g/ha ([7]; Cyperus, pre-emergence, 250 g ai/ha, scale 0 to 100, read-out: Plant response rating, Nutsedge, Yellow): 0%
pest or weed control at 500 g/ha ([7]; Cyperus, pre-emergence, 500 g ai/ha, scale 0 to 100, read-out: Plant response rating, Nutsedge, Yellow): 0%

CCOC(=O)c1nc(C2CC2)nc(N=CN(C)C)c1Br [Compound 40]
Plant response rating, Bermudagrass [1, 8]: 0
Plant response rating, Bermudagrass ([1]; 125 g ai/ha, scale 0 to 100): 0
Plant response rating, Bermudagrass ([1]; 250 g ai/ha, scale 0 to 100): 0
Plant response rating, Bermudagrass ([1]; 500 g ai/ha, scale 0 to 100): 70
Plant response rating, Ragweed [2, 8]: 90
Plant response rating, Ragweed ([2]; 125 g ai/ha, scale 0 to 100): 90
Plant response rating, Ragweed ([2]; 250 g ai/ha, scale 0 to 100): 100
Plant response rating, Ragweed ([2]; 500 g ai/ha, scale 0 to 100): 100
Plant response rating, Goosegrass [3, 8]: 0
Plant response rating, Goosegrass ([3]; 125 g ai/ha, scale 0 to 100): 0
Plant response rating, Goosegrass ([3]; 250 g ai/ha, scale 0 to 100): 5
Plant response rating, Goosegrass ([3]; 500 g ai/ha, scale 0 to 100): 40
Plant response rating, Pigweed [4, 8]: 20
Plant response rating, Pigweed ([4]; 125 g ai/ha, scale 0 to 100): 100
Plant response rating, Pigweed ([4]; 250 g ai/ha, scale 0 to 100): 100
Plant response rating, Pigweed ([4]; 500 g ai/ha, scale 0 to 100): 100
Plant response rating, Velvetleaf [5, 8]: 0
Plant response rating, Velvetleaf ([5]; 125 g ai/ha, scale 0 to 100): 70
Plant response rating, Velvetleaf ([5]; 250 g ai/ha, scale 0 to 100): 90
Plant response rating, Velvetleaf ([5]; 500 g ai/ha, scale 0 to 100): 100
Plant response rating, Cupgrass, Woolly [6, 8]: 5
Plant response rating, Cupgrass, Woolly ([6]; 125 g ai/ha, scale 0 to 100): 5
Plant response rating, Cupgrass, Woolly ([6]; 250 g ai/ha, scale 0 to 100): 70
Plant response rating, Cupgrass, Woolly ([6]; 500 g ai/ha, scale 0 to 100): 95
Plant response rating, Nutsedge, Yellow [7, 8]: 0
Plant response rating, Nutsedge, Yellow ([7]; 125 g ai/ha, scale 0 to 100): 0
Plant response rating, Nutsedge, Yellow ([7]; 250 g ai/ha, scale 0 to 100): 0
Plant response rating, Nutsedge, Yellow ([7]; 500 g ai/ha, scale 0 to 100): 0

CCOC(=O)Cc1nc(C2CC2)nc(N=CN(C)C)c1Br [Compound 33]
Plant response rating, Bermudagrass [1, 8]: 0
Plant response rating, Bermudagrass ([1]; 125 g ai/ha, scale 0 to 100): 0
Plant response rating, Bermudagrass ([1]; 250 g ai/ha, scale 0 to 100): 0
Plant response rating, Bermudagrass ([1]; 500 g ai/ha, scale 0 to 100): 0
Plant response rating, Ragweed [2, 8]: 0
Plant response rating, Ragweed ([2]; 125 g ai/ha, scale 0 to 100): 20
Plant response rating, Ragweed ([2]; 250 g ai/ha, scale 0 to 100): 70
Plant response rating, Ragweed ([2]; 500 g ai/ha, scale 0 to 100): 90
Plant response rating, Goosegrass [3, 8]: 0
Plant response rating, Goosegrass ([3]; 125 g ai/ha, scale 0 to 100): 0
Plant response rating, Goosegrass ([3]; 250 g ai/ha, scale 0 to 100): 0
Plant response rating, Goosegrass ([3]; 500 g ai/ha, scale 0 to 100): 0
Plant response rating, Pigweed [4, 8]: 85
Plant response rating, Pigweed ([4]; 125 g ai/ha, scale 0 to 100): 90
Plant response rating, Pigweed ([4]; 250 g ai/ha, scale 0 to 100): 90
Plant response rating, Pigweed ([4]; 500 g ai/ha, scale 0 to 100): 90
Plant response rating, Velvetleaf [5, 8]: 0
Plant response rating, Velvetleaf ([5]; 125 g ai/ha, scale 0 to 100): 20
Plant response rating, Velvetleaf ([5]; 250 g ai/ha, scale 0 to 100): 60
Plant response rating, Velvetleaf ([5]; 500 g ai/ha, scale 0 to 100): 85
Plant response rating, Cupgrass, Woolly [6, 8]: 0
Plant response rating, Cupgrass, Woolly ([6]; 125 g ai/ha, scale 0 to 100): 0
Plant response rating, Cupgrass, Woolly ([6]; 250 g ai/ha, scale 0 to 100): 0
Plant response rating, Cupgrass, Woolly ([6]; 500 g ai/ha, scale 0 to 100): 0
Plant response rating, Nutsedge, Yellow [7, 8]: 0
Plant response rating, Nutsedge, Yellow ([7]; 125 g ai/ha, scale 0 to 100): 0
Plant response rating, Nutsedge, Yellow ([7]; 250 g ai/ha, scale 0 to 100): 0
Plant response rating, Nutsedge, Yellow ([7]; 500 g ai/ha, scale 0 to 100): 0

COC(=O)Cc1nc(C2CC2)nc(N)c1Br [Compound 13]
Plant response rating, Bermudagrass [1, 9]: 0
Plant response rating, Bermudagrass [1, 8]: 0
Plant response rating, Bermudagrass ([1]; 125 g ai/ha, scale 0 to 100): 0
Plant response rating, Bermudagrass ([1]; 250 g ai/ha, scale 0 to 100): 0
Plant response rating, Ragweed [2, 9]: 45
Plant response rating, Ragweed [2, 8]: 60
Plant response rating, Ragweed ([2]; 125 g ai/ha, scale 0 to 100): 70
Plant response rating, Ragweed ([2]; 250 g ai/ha, scale 0 to 100): 85
Plant response rating, Goosegrass [3, 9]: 0
Plant response rating, Goosegrass [3, 8]: 0
Plant response rating, Goosegrass ([3]; 125 g ai/ha, scale 0 to 100): 0
Plant response rating, Goosegrass ([3]; 250 g ai/ha, scale 0 to 100): 0
Plant response rating, Pigweed [4, 9]: 50
Plant response rating, Pigweed [4, 8]: 60
Plant response rating, Pigweed ([4]; 125 g ai/ha, scale 0 to 100): 85
Plant response rating, Pigweed ([4]; 250 g ai/ha, scale 0 to 100): 90
Plant response rating, Velvetleaf [5, 9]: 60
Plant response rating, Velvetleaf [5, 8]: 60
Plant response rating, Velvetleaf ([5]; 125 g ai/ha, scale 0 to 100): 80
Plant response rating, Velvetleaf ([5]; 250 g ai/ha, scale 0 to 100): 90
Plant response rating, Cupgrass, Woolly [6, 9]: 0
Plant response rating, Cupgrass, Woolly [6, 8]: 0
Plant response rating, Cupgrass, Woolly ([6]; 125 g ai/ha, scale 0 to 100): 0
Plant response rating, Cupgrass, Woolly ([6]; 250 g ai/ha, scale 0 to 100): 0
Plant response rating, Nutsedge, Yellow [7, 9]: 0
Plant response rating, Nutsedge, Yellow [7, 8]: 0
Plant response rating, Nutsedge, Yellow ([7]; 125 g ai/ha, scale 0 to 100): 0
Plant response rating, Nutsedge, Yellow ([7]; 250 g ai/ha, scale 0 to 100): 0
